# Measured values from PMC6897945, “CytA, a reductase in the cytorhodin biosynthesis pathway, inactivates anthracycline drugs in Streptomyces” (Communications Biology, 2019).
# Where two headings read alike, the source gives them in different places.
# Legend:
# MDA-MB-468 cells = conditions: cited from earlier work
# [1] = test system: HeLa human cervical carcinoma cell line; test: Cytotoxic activity, MTT method; type: cell-based; conditions: read-out: Cytotoxic activities IC50, HeLa
# From the text: (§1) All data were obtained in triplicate and are presented as means.
# [2] = test system: HepG2 human hepatocellular carcinoma cell line; test: Cytotoxic activity, MTT method; type: cell-based; conditions: HepG2, read-out: Cytotoxic activities IC50, HepG2
# From the text: as §1
# [3] = test system: RKO human colorectal carcinoma cell line; test: Cytotoxic activity, MTT method; type: cell-based; conditions: read-out: Cytotoxic activities IC50, RKO
# From the text: as §1
# [4] = test system: MDA-MB-468 human triple negative breast adenocarcinoma cell line; test: Cytotoxic activity, MTT method; type: cell-based; conditions: MDA-MB-468, read-out: Cytotoxic activities IC50, MDA-MB-468
# From the text: as §1
# [5] = test system: MCF-7 human breast adenocarcinoma cell line; test: Cytotoxic activity, MTT method; type: cell-based; conditions: MCF7, read-out: Cytotoxic activities IC50, MCF-7
# From the text: as §1
# [6] = Cytotoxic activity, MTT method; type: cell-based; conditions: human
# From the text: as §1
# [7] = test system: MDA-MB-231 human triple negative breast adenocarcinoma cell line; test: Cytotoxic activity, MTT method; type: cell-based; conditions: MDA-MB-231, read-out: Cytotoxic activities IC50, MDA-MB-231
# From the text: as §1
# [8] = test system: A549 human lung cancer cell line; test: Cytotoxic activity, MTT method; type: cell-based; conditions: A549, read-out: Cytotoxic activities IC50, A549
# From the text: as §1
# B. thuringiensis BT01 = test: Antibacterial activity, broth dilution MIC; type: cell-based; conditions: Bacillus thuringiensis
# Experimental: (§2) The antibacterial activities of compounds 1–13 were assessed using twofold serial dilutions of antibacterial agents in MH broth, according to previously reported standard methods provided by Clinical and Laboratory Standards Institute (CLSI)[30]. These compounds were tested for their antibacterial activities against Bacillus subtilis BS01, Staphyloccocus aureus ATCC 29213, Staphyloccocus aureus 745524, Bacillus thuringiensis BT01, and Enterococcus faecalis ATCC 29212 using a broth dilution method.
# [9] = test system: Staphylococcus aureus 745524; test: Antibacterial activity, broth dilution MIC; type: cell-based
# Experimental: as §2
# B. subtilis BS01 = test: Antibacterial activity, broth dilution MIC; type: cell-based; conditions: Bacillus subtilis
# Experimental: as §2
# E. faecalis ATCC 29212 = test: Antibacterial activity, broth dilution MIC; type: cell-based; conditions: Enterococcus faecalis
# Experimental: as §2
# [10] = test system: Staphylococcus aureus ATCC 29213; test: Antibacterial activity, broth dilution MIC; type: cell-based
# Experimental: as §2
# [11] = test system: five gram-positive bacteria; test: Antibacterial activities, set of five gram-positive bacteria; type: cell-based; conditions: set of five gram-positive bacteria (Table 2)
# Experimental: as §2
# CytA = test: Enzyme kinetics of CytA (formation of deglycosylation products, anaerobic); type: biochemical, Streptomyces sp. SCSIO 1666; conditions: substrate of CytA; 0.5 μM CytA, 20 μM NADH, anaerobic
# Experimental: Enzymatic reactions were carried out under anaerobic conditions in an anaerobic workstation (Don Whitley Scientific A45) containing a gas phase of N2/H2/CO2 (80:10: 10%, by vol.). ^1H, ^13C, and 2D (COSY, HMQC, HMBC and NOESY) NMR spectra were recorded at 25 °C with an Avance 700 MHz spectrometer instruments (Bruker). High-resolution mass spectra were obtained with a Maxis quadrupole-time-of-flight mass spectrometer (Bruker).
# To validate the in vitro biochemical activities of CytA, we overexpressed and purified this enzyme as a soluble N-terminally His6-tagged protein from E. coli (Fig. 2a). Tris-Cl buffer was made O2 free by boiling, followed by cooling under N2 flow; NADH stock solution (dissolved in Tris-Cl), substrate stock solution (dissolved in DMSO), and enzyme solution (dissolved in Tris-Cl supplemented with 10% glycerin) were subjected to O2 eliminating process in the anaerobic workstations for at least two cycles (40 min for one cycle). CytA enzymatic activity was tested in 50 μL volume containing 50 mM Tris-Cl (pH 8.0), 25 μM substrate, 0.5 μM CytA, and 20 μM NADH, at 37 °C for 30 min. The reaction was quenched with the addition to 2 volumes MeOH. After centrifugation to remove protein, supernatants were analyzed with Agilent HPLC equipment using a Phenomenex Prodigy ODS column S5 (150 × 4.60 mm, 5 μ) and UV detection at 254 and 500 nm. Samples were eluted with a gradient elution of phase A containing 0.1% TFA in ddH2O and phase B containing 100% acetonitrile, at a flow rate of 1 mL/min.
# Kinetic analyses of CytA with putative substrates 6–10, daunorubicin, doxorubicin, idarubicin, epirubicin and pirarubicin, involved a reaction volume of 20 μL consisting of 50 mM Tris-Cl (pH 8.0), 0.5 μM CytA, 20 μM NADH, […]
# All assays were performed in triplicate and Km and Vmax values were calculated on the basis of curve fitting to the Michaelis-Menten equation: v = Vmax *[S]/(Km + [S]) (Supplementary Fig. 7).
# For kinetics of CytA, Origin 9.0 (OriginLab Co.) was used to analyze on the basis of curve fitting to the Michaelis-Menten equation. Experiments were performed in triplicate independently. For antibacterial activity, experiments were performed in triplicate using 96-well plates.
# [12] = test system: Streptomyces sp. SCSIO 1666 WT; test: Growth inhibition zone assay; type: cell-based; conditions: WT strain, Fig. 3
# From the text: (§3) We also noted that the ∆cytA mutant strain accumulated small amounts (80~100-fold lower than WT producer) of the immediate biosynthetic precursors of cosmomycins A (3) and B (4). The in vitro antimicrobial activities of compounds 1–13 against a panel of gram-positive bacteria (Table 2) provided some insight into the possible physiological significance of CytA-catalyzed reductions. Furthermore, we had observed that the ΔcytA mutant strain is clearly impaired relative to the WT strain upon addition of 6 or 7 as potential substrates. To evaluate this effect, we probed the sensitivity of Streptomyces sp. SCSIO 1666 to 6 and 7 in an inhibition zone assay (Fig. 3). A clear inhibition zone (16 mm) using the ΔcytA mutant plate was observed when supplemented with 1 μg of 6 or 7. […] That CytA production endows cosmomycin resistance provides strong evidence that the cytA gene directly confers Streptomyces. sp. SCSIO 1666 with the ability to protect itself from the effects by self-resistance to cosmomycins C and D.
# (§4) Fig. 3 Sensitivity of Streptomyces sp. SCSIO 1666 toward cosmomycin C (6) and cosmomycin D (7) (1 μg) as determined by growth inhibition zone assays. […] TEXT PRINTED IN THE PICTURE: 6: ΔcytA mutant strain: 16 mm DOUBTS OF THE COPYIST ABOUT THIS PICTURE: 6, ΔcytA mutant strain: the small yellow print reads 16 mm, but it could be 15 or 18 mm / 6: the yellow double arrow marked 16 mm spans the zone around disc 6. The picture prints no measure name, so it may be the inhibition zone diameter or only a scale mark
# [13] = test system: Streptomyces sp. SCSIO 1666 ΔcytA mutant strain; test: Growth inhibition zone assay; type: cell-based; conditions: ∆cytA mutant strain, Fig. 3
# From the text: as §3, §4
# [14] = Huvec-12 normal cell line, read-out: Cytotoxic activities IC50, Huvec-12
# [15] = L02 normal cell line, read-out: Cytotoxic activities IC50, L02
# [16] = B. thuringiensis BT01, triplicate, read-out: MIC values, BT
# [17] = Staphylococcus aureus 745524, triplicate, read-out: MIC values, SA2
# [18] = B. subtilis BS01, triplicate, read-out: MIC values, BS
# [19] = ATCC29212, E. faecalis ATCC 29212, triplicate, read-out: MIC values, EF
# [20] = ATCC29213, Staphylococcus aureus ATCC 29213, triplicate, read-out: MIC values, SA1
SMILES,IC50 [1] [µM],IC50 [2] [µM],IC50 [3] [µM],IC50 [4] [µM],IC50 [5] [µM],"IC50 [6, 14] [µM]","IC50 [6, 15] [µM]",IC50 [7] [µM],IC50 [8] [µM],MIC (B. thuringiensis BT01; [16]) [µg/mL],"MIC [9, 17] [µg/mL]",MIC (B. subtilis BS01; [18]) [µg/mL],MIC (E. faecalis ATCC 29212; [19]) [µg/mL],"MIC [10, 20] [µg/mL]",MIC [11] [µg/mL],"MIC (B. thuringiensis BT01; BT01, read-out: MIC values, BT) [µg/mL]",Km (CytA) [µM],kcat (CytA) [s⁻¹],other results
"CC[C@@]1(O)CCc2c(O)c3c(c(O)c2[C@H]1O[C@H]1C[C@H](N(C)C)[C@H](O[C@H]2C[C@H](O)[C@H](O[C@H]4CC[C@H](O)[C@H](C)O4)[C@H](C)O2)[C@H](C)O1)C(=O)c1cccc(O)c1C3=O [Compound 4, cosmomycin B]",0.017,0.038,0.089,0.71,0.65,0.41,0.32,0.85,0.021,0.25,0.125,0.25,0.03,0.25,,,,,cytotoxic activity against MDA-MB-468 cells (MDA-MB-468 cells): devoid of activity
CC[C@@]1(O)CCc2c(O)c3c(c(O)c2[C@H]1C(=O)OC)C(=O)c1cccc(O)c1C3=O [Compound 11],,,,,,,,,,> 32,> 32,> 32,> 32,> 32,> 32,,,,
"CC[C@@]1(O)C[C@H](O[C@H]2C[C@H](N(C)C)[C@H](O)[C@H](C)O2)c2c(O)c3c(c(O)c2[C@H]1C(=O)OC)C(=O)c1cccc(O)c1C3=O [Compound 9, ε-rhodomycin]",1.01,1.91,2.88,13.5,11.7,7.21,14,6.63,1.92,,,,,,,4,8.5,0.0055,"MIC ([9]; Staphylococcus aureus, 745524, read-out: MIC values, SA2): 4 µg/mL; MIC (B. subtilis BS01; BS01, read-out: MIC values, BS): 8 µg/mL; MIC (E. faecalis ATCC 29212; ATCC29212, read-out: MIC values, EF): 8 µg/mL; MIC ([10]; Staphylococcus aureus, ATCC29213, read-out: MIC values, SA1): 4 µg/mL"
"CC[C@@]1(O)C[C@H](O)c2c(O)c3c(c(O)c2[C@H]1C(=O)OC)C(=O)c1cccc(O)c1C3=O [Compound 10, ε-rhodomycinone]",20.2,17.2,18.5,7.43,37.3,15.3,11.8,> 50,33.2,,> 32,> 32,> 32,> 32,> 32,> 32,31.2,0.00233,activity in growth inhibition zone assay [12]: inactive; activity in growth inhibition zone assay [13]: inactive
